Assay results reported in patent publication US4276286A, “Process for decreasing ammonia concentration in domestic animals or fowls” (Kumiai Chemical Industry Co., Ltd., priority 1975, dated 1981).

How the values were obtained:
[1] = test system: ammonia (NH3-N) in contents of the colon; experiment: Ammonia concentration in contents of the colon of chickens (modified Fujii-Okuda method); format: in vivo, chicken; settings: after 8 weeks, control 155
Procedure: Chickens just after hatching were divided into 5 groups, each consisting of 10 chickens. Diets containing 2.5 ppm or 5.00 ppm of multhiomycin were given to two groups, respectively, and diets containing 2.5 ppm or 5.00 ppm of thiopeptin were given to other two groups (comparative groups), respectively. A medicament-free diet was given to the remaining one group (control group). After 8 weeks, with respect to each group, the ammonia concentrations in the contents of the colon were determined according to a modification of the method of Fujii and Okuda, described hereinafter.
(§1) A deproteinizing solution was added to the sample to deproteinize the sample and remove coloration-inhibiting components therefrom and simultaneously deactivate enzymes for preventing formation of ammonia during standing. The supernatant was separated and a coloring solution containing phenol and a nitroprusside salt was added thereto. Then, an alkaline solution was added to the mixture to make it alkaline, and a coloring solution containing sodium hypochlorite was further added to effect oxidation and form indophenol showing a blue color. The absorbance of this color at 630 mμ was measured to determine the ammonia nitrogen concentration. This measurement method is expressed by the following reaction formula: [drawing 1]
(§2) Incidentally, the nitroprusside salt acts as a catalyst in the above reaction.

[2] = test system: ammonia (NH3-N) in portal blood; experiment: Ammonia concentration in portal blood of pigs (modified Fujii-Okuda method); format: in vivo, pig; settings: 10 ppm in diet, after 2 months; for NH3-N in portal blood: control 6.80
Procedure: as §1, §2
Young pigs just after weaning were divided into 3 groups, each consisting of 6 pigs. Diets containing 10 ppm of multhiomycin were given to one group, diets containing 10 ppm of thiopeptin as the comparative medicament were given to another group, and a medicament-free diet was given to the remaining one group (control group). After 2 months, with respect to each group, the ammonia concentrations in portal blood were determined according to the modified Fujii-Okuda method.

ammonia in excrement = experiment: Ammonia concentration in excrement of chickens (Kitagawa's vacuum gas detector); format: in vivo, chicken
From the text: The tests were made on commercially available chickens for exclusive use as broilers (kind: Hubbard). 150 Chickens which were just hatched (male: 75, female: 75) were divided into 3 groups, each consisting of 50 chickens. Basal diets (containing no antibiotics, see Tables 6 and 7) were given to one group, and diets containing 2.5 ppm or 10 ppm of multhiomycin were given to the other two groups. The feed was constantly supplied to each group with water for 8 weeks from the hatching. Each group was bred in one windless cage (1.8×5.4×2.7 m, 9.7 m^2 per group), and each cage was kept warm by circulating warm water under the floor until the chickens were two weeks old. Further, the floor were covered with wood chips in a depth of about 3 cm.
About 6 or 8 weeks from the beginning of the test, the ammonia concentration in excrement was measured in each group. The ammonia concentrations in the excrement were measured with Kitagawa's vacuum gas detector and the moisture content therein was measured with the hot-air drying method whereby 2 kg weight of excrement (containing chips) was treated at 100°±2° C. for 24 hours to measure its moisture content.

mice = experiment: Acute toxicity in mice; format: in vivo, mouse; settings: injection into abdominal cavity; for LD50 in words: mice, compared with multhiomycin
Procedure: Acute toxins of multhiomycin, thiopeptin and thiostrepton administered to mice, were measured by injection of each drug into the abdominal cavities of the mice.

Acidity = format: physicochemical
ammonia = experiment: Ammonia concentration in the animal's body, intestine and blood or excrements (general statement); format: in vivo; settings: compared with untreated animals
bacteria = experiment: In vitro action on bacteria; format: cell-based
[3] = Acute toxicity (general statement); format: in vivo; settings: in comparison with other antibiotics
[4] = in vivo
[5] = Remaining activity of antibiotics in excrement of chickens (microbial quantitative method); settings: 10 μg/g added to chicken excrement, room temperature
Procedure: (§3) The rise and fall in the activity of the multhiomycin excreted without absorption in the interior of the animal body was compared with the activity of other antibiotics, such as thiopeptin and thiostrepton.
Multhiomycin, thiopeptin and thiostrepton were respectively added to the excrement of chickens bred with the feed containing no antibiotics in a concentration of 10 μg/g. The excrement was preserved under room temperature condition and the remaining potency of each antibiotic in excrement was measured at different time intervals with a microbal quantitative method.

[6] = Behavior of antibiotics in soil (microbial quantitative method); settings: 10 μg/g added to soil, room temperature
Procedure: as §3
To soils (collected in Kikukawa-cho, Ogasa-gun, Shizuoka-ken, Japan) which were confirmed to have no anti-antibiotic activity were respectively added multhiomycin, thiopeptin and thiostrepton, each containing 10 μg/g concentration of each antibiotic. The soils were preserved under room temperature condition, and the remaining potencies in soils of each antibiotic were measured at different time intervals according to the microbal quantitative method.

Row | Compound | NH3-N in contents of colon ([1]; 2.5 ppm in diet) | NH3-N in contents of colon ([1]; 5.0 ppm in diet) | NH3-N in portal blood, value in parentheses (difference from control) [2] | NH3-N in portal blood [2] | Ammonia concentration in excrement (ammonia in excrement; 2.5 ppm in diet, 6 weeks of age, control 25.5) | Ammonia concentration in excrement (ammonia in excrement; 2.5 ppm in diet, 8 weeks of age, control 29.7) | Ammonia concentration in excrement (ammonia in excrement; 10 ppm in diet, 6 weeks of age, control 25.5) | Ammonia concentration in excrement (ammonia in excrement; 10 ppm in diet, 8 weeks of age, control 29.7) | Acute toxicity LD50 (mice; female mouse) | Acute toxicity LD50 (mice; male mouse) | Deaths (mice; mice, 4,000 mg/kg) | Acidity (Acidity) | Ammonia in excrement of treated animals, in words (ammonia) | Action on bacteria (bacteria) | Acute toxicity in words [3] | Amount remaining in internal organs or muscles, in words [4] | Excretion [4] | Remaining amount in excrement after 5 days [5] | Remaining ratio in soil after 60 days [6] | LD50 in words (mice)
1 | C=C(NC(=O)c1csc(-c2nc3c(cc2O)-c2nc(cs2)C(=O)NC(C(C)O)C(=O)NC(=CC)c2nc(cs2)C(=O)NC2CC(O)C(=O)OCc4cccc5[nH]c(c(C)c45)C(=O)SCC(NC(=O)c4csc2n4)c2nc-3cs2)n1)C(N)=O (stereo not drawn) [Multhiomycin] | 60 μg/g of wet matter | 46 μg/g of wet matter | -3.36 µg/mL | 3.44 µg/mL | 9.8 ppm | 11.2 ppm | 9.0 ppm | 10.0 ppm | > 4,000 mg/kg | > 4,000 mg/kg | did not cause a single death | slightly acidic | very small amounts of ammonia | astonishing action on bacteria | low degree of acute toxicity | so little as to be not perceptible in a recognizable amount | completely excreted |  |  | 
2 | Thiopeptin | 120 μg/g of wet matter | 100 μg/g of wet matter | -0.8 µg/mL | 6.00 µg/mL |  |  |  |  | 660 mg/kg | 780 mg/kg |  |  |  |  |  |  |  | 52% | 41% | small values of LD50
3 | Thiostrepton |  |  |  |  |  |  |  |  |  | 85 mg/kg |  |  |  |  |  |  |  | 43% | 44% | small values of LD50
